{"source": "patent US20180007910A1", "about": "“FUNGICIDAL COMPOSITION EFFECTIVE AGAINST ALTERNARIA ON CITRUS” (ARYSTA LIFESCIENCE BENELUX SPRL, priority 2015, published 2018)", "key": {"mandarins": {"system": "mandarins", "experiment": "Phytotoxicity observation in field trial 2014", "type": "in vivo", "conditions": "field trial 2014 on mandarins, Syllit 544 g/l suspension concentrate", "experimental": "(§1) A field trial was conducted for the control of Alternaria alternata on mandarins in Alzira, Valencia, Spain. The product used was Syllit 544 g/l suspension concentrate. Mandarins were harvested and classified using the OECD criteria (international quality standard for citrus established by the Organisation for Economic Co-operation and Development in 2010)."}, "Alternaria alternata": {"system": "Alternaria alternata", "experiment": "Field trial 2014, control of Alternaria alternata on mandarins (Alzira, Valencia, Spain)", "type": "in vivo", "conditions": "Syllit 544 g/l suspension concentrate; spring, autumn and combined treatments; OECD criteria; FIG. 9", "experimental": "as §1"}}}
{"compound": "CC(=O)O.CCCCCCCCCCCCNC(=N)N", "note": "[Dodine, 1-dodecylguanidiniumethanoate]", "values": [{"measurement": "symptoms of phytotoxicity", "setting": "mandarins", "result": "No symptoms of phytotoxicity were observed"}, {"measurement": "percentage of fruits in the category Extra compared to control group", "setting": "Alternaria alternata", "result": "significantly higher percentage of fruit"}]}
